{
  "source": "ChEMBL document CHEMBL3880420",
  "about": "“1,5-Diaryl-2-alkylpyrrole-3-Substituted Nitro Esters, Selective COX-2 Inhibitors and Nitric Oxide Donors” (2013)",
  "note": "The source made the active and inactive calls. No cut-off for these calls is given here.",
  "data": [
    {"target": "T1, Prostaglandin G/H synthase 1 (Mus musculus) (UniProt P22437)", "T1 sequence (whole entry)": "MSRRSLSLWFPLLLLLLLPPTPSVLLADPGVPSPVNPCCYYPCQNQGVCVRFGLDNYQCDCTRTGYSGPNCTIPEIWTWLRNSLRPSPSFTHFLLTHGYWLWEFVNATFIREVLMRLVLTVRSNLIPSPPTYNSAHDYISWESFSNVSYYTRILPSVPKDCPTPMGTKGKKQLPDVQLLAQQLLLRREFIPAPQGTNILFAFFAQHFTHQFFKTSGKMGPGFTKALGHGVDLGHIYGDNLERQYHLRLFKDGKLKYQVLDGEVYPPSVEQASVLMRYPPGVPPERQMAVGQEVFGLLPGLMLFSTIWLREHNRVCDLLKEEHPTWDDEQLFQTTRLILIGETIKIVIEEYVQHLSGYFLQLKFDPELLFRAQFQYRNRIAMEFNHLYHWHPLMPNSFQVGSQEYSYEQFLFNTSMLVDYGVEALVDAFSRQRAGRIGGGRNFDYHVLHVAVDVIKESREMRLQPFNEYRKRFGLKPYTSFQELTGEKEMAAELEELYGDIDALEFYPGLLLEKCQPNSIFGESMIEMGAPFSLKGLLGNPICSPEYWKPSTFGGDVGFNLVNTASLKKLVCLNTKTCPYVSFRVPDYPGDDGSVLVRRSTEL", "assay": "Inhibition of COX1 in mouse J774 cells using arachidonic acid as substrate assessed as decrease in PGE2 production at 10 uM preincubated for 15 mins followed by substrate addition measured after 30 mins by radioimmunoassay relative to control", "assay_type": "cell-based", "conditions": "not given", "units": {"inhibition": "%"}, "values": [
      {"smiles": "Cc1c(CC(=O)OCC(CO[N+](=O)[O-])O[N+](=O)[O-])cc(-c2ccc(S(C)(=O)=O)cc2)n1-c1ccccc1", "note": "(racemic)", "inhibition": "< 20"},
      {"smiles": "Cc1c(CCOCCCO[N+](=O)[O-])cc(-c2ccc(S(C)(=O)=O)cc2)n1-c1cccc(F)c1", "inhibition": "< 20"},
      {"smiles": "Cc1c(CCOCCO)cc(-c2ccc(S(C)(=O)=O)cc2)n1-c1ccc(F)cc1", "inhibition": "< 20"},
      {"smiles": "Cc1c(CC(=O)OCCO[N+](=O)[O-])cc(-c2ccc(S(C)(=O)=O)cc2)n1-c1ccc(F)cc1", "inhibition": "< 20"},
      {"smiles": "Cc1c(CC(=O)OCCCCO[N+](=O)[O-])cc(-c2ccc(S(C)(=O)=O)cc2)n1-c1cccc(F)c1", "inhibition": "< 20"},
      {"smiles": "CSc1ccc(-n2c(-c3ccc(S(C)(=O)=O)cc3)cc(CC(=O)OCCCO)c2C)cc1", "inhibition": "< 20"},
      {"smiles": "COc1ccc(-n2c(-c3ccc(S(C)(=O)=O)cc3)cc(CC(=O)OCCCO[N+](=O)[O-])c2C)cc1", "inhibition": "< 20"},
      {"smiles": "Cc1c(C(N)C(=O)OCCCO[N+](=O)[O-])cc(-c2ccc(S(C)(=O)=O)cc2)n1-c1ccc(F)cc1", "note": "(racemic)", "inhibition": "< 20"},
      {"smiles": "Cc1c(CCOCCO)cc(-c2ccc(S(C)(=O)=O)cc2)n1-c1ccc(F)c(F)c1", "inhibition": "< 20"},
      {"smiles": "Cc1c(CCOCCCO[N+](=O)[O-])cc(-c2ccc(S(C)(=O)=O)cc2)n1-c1ccccc1", "inhibition": "< 20"},
      {"smiles": "Cc1c(CC(=O)N[C@@H](CO[N+](=O)[O-])C(=O)O)cc(-c2ccc(S(C)(=O)=O)cc2)n1-c1cccc(F)c1", "inhibition": "< 20"},
      {"smiles": "Cc1c(CC(=O)NCCO)cc(-c2ccc(S(C)(=O)=O)cc2)n1-c1ccc(F)cc1", "inhibition": "< 20"},
      {"smiles": "Cc1c(CC(=O)NC(CCO[N+](=O)[O-])C(=O)O)cc(-c2ccc(S(C)(=O)=O)cc2)n1-c1ccc(F)cc1", "note": "(racemic)", "inhibition": "< 20"},
      {"smiles": "Cc1c(CCOCCO[N+](=O)[O-])cc(-c2ccc(S(C)(=O)=O)cc2)n1-c1ccc(F)cc1", "inhibition": "< 20"},
      {"smiles": "Cc1c(C(N)C(=O)OCCCCO[N+](=O)[O-])cc(-c2ccc(S(C)(=O)=O)cc2)n1-c1ccc(F)cc1", "note": "(racemic)", "inhibition": "< 20"},
      {"smiles": "Cc1c(CCOCCCO)cc(-c2ccc(S(C)(=O)=O)cc2)n1-c1ccc(F)cc1", "inhibition": "< 20"},
      {"smiles": "CSc1ccc(-n2c(-c3ccc(S(C)(=O)=O)cc3)cc(CC(=O)OCCO)c2C)cc1", "inhibition": "< 20"},
      {"smiles": "Cc1c(CCOCCO[N+](=O)[O-])cc(-c2ccc(S(C)(=O)=O)cc2)n1-c1cccc(F)c1", "inhibition": "< 20"},
      {"smiles": "Cc1c(CC(=O)N[C@@H](CO)C(=O)O)cc(-c2ccc(S(C)(=O)=O)cc2)n1-c1ccc(F)cc1", "inhibition": "< 20"},
      {"smiles": "Cc1c(CC(=O)OCCO)cc(-c2ccc(S(C)(=O)=O)cc2)n1-c1ccc(F)cc1", "inhibition": "< 20"},
      {"smiles": "Cc1c(CC(=O)OCCCO)cc(-c2ccc(S(C)(=O)=O)cc2)n1-c1cccc(F)c1", "inhibition": "< 20"},
      {"smiles": "Cc1c(CC(=O)N[C@@H](CO[N+](=O)[O-])C(=O)O)cc(-c2ccc(S(C)(=O)=O)cc2)n1-c1ccc(F)cc1", "inhibition": "< 20"},
      {"smiles": "Cc1c(CC(=O)OCCO[N+](=O)[O-])cc(-c2ccc(S(C)(=O)=O)cc2)n1-c1ccccc1", "inhibition": "< 20"},
      {"smiles": "CSc1ccc(-n2c(-c3ccc(S(C)(=O)=O)cc3)cc(CC(=O)OCCCCO)c2C)cc1", "inhibition": "< 20"},
      {"smiles": "Cc1c(CC(=O)OCCCO[N+](=O)[O-])cc(-c2ccc(S(C)(=O)=O)cc2)n1-c1cccc(F)c1", "inhibition": "< 20"},
      {"smiles": "Cc1c(CCOCCO)cc(-c2ccc(S(C)(=O)=O)cc2)n1-c1cccc(F)c1", "inhibition": "< 20"},
      {"smiles": "COc1ccc(-n2c(-c3ccc(S(C)(=O)=O)cc3)cc(CC(=O)OCCO)c2C)cc1", "inhibition": "< 20"},
      {"smiles": "Cc1c(CCOCCO)cc(-c2ccc(S(C)(=O)=O)cc2)n1-c1ccccc1", "inhibition": "< 20"},
      {"smiles": "Cc1c(CC(=O)NC(CCO[N+](=O)[O-])C(=O)O)cc(-c2ccc(S(C)(=O)=O)cc2)n1-c1cccc(F)c1", "note": "(racemic)", "inhibition": "< 20"},
      {"smiles": "Cc1c(CCOCCCO)cc(-c2ccc(S(C)(=O)=O)cc2)n1-c1cccc(F)c1", "inhibition": "< 20"},
      {"smiles": "CSc1ccc(-n2c(-c3ccc(S(C)(=O)=O)cc3)cc(CC(=O)OCCCCO[N+](=O)[O-])c2C)cc1", "inhibition": "< 20"},
      {"smiles": "Cc1c(CCOCCO[N+](=O)[O-])cc(-c2ccc(S(C)(=O)=O)cc2)n1-c1ccccc1", "inhibition": "< 20"},
      {"smiles": "COc1ccc(-n2c(-c3ccc(S(C)(=O)=O)cc3)cc(CC(=O)OCCCCO[N+](=O)[O-])c2C)cc1", "inhibition": "< 20"},
      {"smiles": "Cc1c(CC(=O)NCCCO)cc(-c2ccc(S(C)(=O)=O)cc2)n1-c1cccc(F)c1", "inhibition": "< 20"},
      {"smiles": "Cc1c(CCOCCCO[N+](=O)[O-])cc(-c2ccc(S(C)(=O)=O)cc2)n1-c1ccc(F)cc1", "inhibition": "< 20"},
      {"smiles": "Cc1c(CC(=O)NCCO[N+](=O)[O-])cc(-c2ccc(S(C)(=O)=O)cc2)n1-c1ccc(F)cc1", "inhibition": "< 20"},
      {"smiles": "Cc1c(C(N)C(=O)OCCO[N+](=O)[O-])cc(-c2ccc(S(C)(=O)=O)cc2)n1-c1ccc(F)cc1", "note": "(racemic)", "inhibition": "< 20"},
      {"smiles": "CSc1ccc(-n2c(-c3ccc(S(C)(=O)=O)cc3)cc(CC(=O)OCCO[N+](=O)[O-])c2C)cc1", "inhibition": "< 20"},
      {"smiles": "Cc1c(CC(=O)OCCCCO[N+](=O)[O-])cc(-c2ccc(S(C)(=O)=O)cc2)n1-c1ccc(F)cc1", "inhibition": "< 20"},
      {"smiles": "Cc1c(CC(=O)NCCCO)cc(-c2ccc(S(C)(=O)=O)cc2)n1-c1ccc(F)cc1", "inhibition": "< 20"},
      {"smiles": "CSc1ccc(-n2c(-c3ccc(S(C)(=O)=O)cc3)cc(CC(=O)OCCCO[N+](=O)[O-])c2C)cc1", "inhibition": "< 20"},
      {"smiles": "COc1ccc(-n2c(-c3ccc(S(C)(=O)=O)cc3)cc(CC(=O)OCCCCO)c2C)cc1", "inhibition": "< 20"},
      {"smiles": "Cc1c(CC(=O)OCCCCO)cc(-c2ccc(S(C)(=O)=O)cc2)n1-c1cccc(F)c1", "inhibition": "< 20"},
      {"smiles": "Cc1c(CC(=O)OCCO[N+](=O)[O-])cc(-c2ccc(S(C)(=O)=O)cc2)n1-c1cccc(F)c1", "inhibition": "< 20"},
      {"smiles": "COc1ccc(-n2c(-c3ccc(S(C)(=O)=O)cc3)cc(CC(=O)OCCO[N+](=O)[O-])c2C)cc1", "inhibition": "< 20"},
      {"smiles": "Cc1c(CC(=O)NC(CCO)C(=O)O)cc(-c2ccc(S(C)(=O)=O)cc2)n1-c1ccc(F)cc1", "note": "(racemic)", "inhibition": "< 20"},
      {"smiles": "Cc1c(CCOCCO[N+](=O)[O-])cc(-c2ccc(S(C)(=O)=O)cc2)n1-c1ccc(F)c(F)c1", "inhibition": "< 20"},
      {"smiles": "Cc1c(CC(=O)OCCO)cc(-c2ccc(S(C)(=O)=O)cc2)n1-c1cccc(F)c1", "inhibition": "< 20"},
      {"smiles": "Cc1c(CC(=O)NCCO)cc(-c2ccc(S(C)(=O)=O)cc2)n1-c1cccc(F)c1", "inhibition": "< 20"},
      {"smiles": "COc1ccc(-n2c(-c3ccc(S(C)(=O)=O)cc3)cc(CC(=O)OCCCO)c2C)cc1", "inhibition": "< 20"},
      {"smiles": "Cc1c(CC(=O)N[C@@H](CO)C(=O)O)cc(-c2ccc(S(C)(=O)=O)cc2)n1-c1cccc(F)c1", "inhibition": "< 20"},
      {"smiles": "Cc1c(CC(=O)OCCO)cc(-c2ccc(S(C)(=O)=O)cc2)n1-c1ccccc1", "inhibition": "< 20"}
    ]},
    {"tested_on": "Liver", "assay": "Induction of nitric oxide release in rat liver assessed as time require for amount of nitrite release by test compound equal to half its maximum release at 1 mM by amperometric method", "assay_type": "functional", "conditions": "not given", "units": {"T1/2": "h"}, "values": [
      {"smiles": "Cc1c(CCOCCCO[N+](=O)[O-])cc(-c2ccc(S(C)(=O)=O)cc2)n1-c1cccc(F)c1", "T1/2": 1.41},
      {"smiles": "Cc1c(CC(=O)OCCO[N+](=O)[O-])cc(-c2ccc(S(C)(=O)=O)cc2)n1-c1ccc(F)cc1", "T1/2": 1.15},
      {"smiles": "O=C(NCCO[N+](=O)[O-])c1cccnc1", "T1/2": 0.463},
      {"smiles": "Cc1c(CCOCCO[N+](=O)[O-])cc(-c2ccc(S(C)(=O)=O)cc2)n1-c1ccc(F)cc1", "T1/2": 0.713},
      {"smiles": "Cc1c(CCOCCO[N+](=O)[O-])cc(-c2ccc(S(C)(=O)=O)cc2)n1-c1cccc(F)c1", "T1/2": 1.01},
      {"smiles": "Cc1c(CCOCCO[N+](=O)[O-])cc(-c2ccc(S(C)(=O)=O)cc2)n1-c1ccc(F)c(F)c1", "T1/2": 1.14}
    ]},
    {"tested_on": "not listed separately", "assay": "Vasorelaxing effect in Wistar rat thoracic aorta ring assessed as reduction of KCl-induced contractile tone at 10 uM in presence of guanylate cyclase inhibitor ODQ1", "assay_type": "functional", "conditions": "not given", "values": [
      {"smiles": "Cc1c(C(N)C(=O)OCCCO[N+](=O)[O-])cc(-c2ccc(S(C)(=O)=O)cc2)n1-c1ccc(F)cc1", "note": "(racemic)", "Activity": "Active"},
      {"smiles": "Cc1c(C(N)C(=O)OCCCCO[N+](=O)[O-])cc(-c2ccc(S(C)(=O)=O)cc2)n1-c1ccc(F)cc1", "note": "(racemic)", "Activity": "Active"},
      {"smiles": "CSc1ccc(-n2c(-c3ccc(S(C)(=O)=O)cc3)cc(CC(=O)OCCCCO[N+](=O)[O-])c2C)cc1", "Activity": "Active"}
    ]},
    {"tested_on": "Liver", "assay": "Induction of nitric oxide release in rat liver assessed as increase in nitrite levels at 1 mM by amperometric method", "assay_type": "functional, tissue-based", "conditions": "TDE = time-dependent effect", "values": [
      {"smiles": "Cc1c(CCOCCCO[N+](=O)[O-])cc(-c2ccc(S(C)(=O)=O)cc2)n1-c1cccc(F)c1", "Activity": "Tde"},
      {"smiles": "COc1ccc2cc([C@H](C)C(=O)OCCCCO[N+](=O)[O-])ccc2c1", "Activity": "Tde"}
    ]}
  ]
}
